Results from US5159085A, “2-anilino phenylacetic acid derivatives as inhibitors of PLA2 and lipoxygenase” (American Home Products Corporation, priority 1991, dated 1992).

Tests used:
Pancreatic Lipase PLA2 = assay: In vitro isolated phospholipase A2 assay, pancreatic lipase PLA2; type: biochemical
6-keto-PGF1α /TxB2 = assay: In vivo murine zymosan peritonitis assay, 6-keto-PGF1α (cyclooxygenase pathway); parameters: species or system mouse (male CD-1)
Procedure: The compounds of the invention are evaluated for their ability to inhibit the lipoxygenase and/or cyclooxygenase pathways of arachidonic acid metabolism in the in vivo murine zymosan peritonitis assay.
(§1) This assay is carried out as follows:
Male CD-1 mice (8 weeks old) are placed in plastic boxes in groups of six. Animals are injected with 1 ml i.p. of either 1% zymosan in pyrogen free 0.9% saline or saline (unstimulated control). Compounds are dosed orally 1 hour prior to zymosan injection. Twenty minutes after zymosan injection, the mice are asphyxiated by CO2 inhalation and the peritoneal cavity is lavaged with 2 ml ice cold Hanks Balanced Salt Solution (HBSS) without CaCl2, MgSO4 ·7H2 O and MgCL2 ·6H2 O. Peritoneal lavage fluid from each mouse is removed by syringe and placed in 5 ml plastic test tubes put on ice and volume is noted. Preparation of samples for evaluation by ELISA is as follows: Samples are centrifuged at 800×g for 15 minutes; 1 ml of the supernatant is added to 8 ml ice cold methanol and kept at -70° C. overnight to precipitate protein; and samples are then centrifuged at 800×g for 15 minutes, followed by a drying procedure in a Savant speed vac concentrator. The samples are reconstituted with 1 ml ice cold ELISA buffer and stored at -70° C. until assayed. The assay for eicosanoids (LTC4 and 6-keto-PGF1α) is performed according to conventional ELISA procedures.
Compounds to be tested orally are suspended in 0.5% Tween 80. Compounds to be tested intraperitoneally are suspended in 0.5% methylcellulose in 0.9% saline.
The total metabolite level in lavage fluid/mouse is calculated and the significance is determined by a one-way analysis of variance with LSD comparisons to control (p≤0.05). Drug effects are expressed as a percent change from control values.

[1] = target: T1, LTD4 (isolated guinea pig trachea) (Cavia porcellus, UniProt Q2NNR5); assay: In vitro isolated guinea pig trachea assay, LTD4 antagonist activity; parameters: species or system guinea pig (male Hartley); details: Table VII
T1 construct: the neck is opened and the trachea removed; from tissue; host or cells: tracheal rings of male Hartley guinea pigs
T1 sequence (Q2NNR5 1-340): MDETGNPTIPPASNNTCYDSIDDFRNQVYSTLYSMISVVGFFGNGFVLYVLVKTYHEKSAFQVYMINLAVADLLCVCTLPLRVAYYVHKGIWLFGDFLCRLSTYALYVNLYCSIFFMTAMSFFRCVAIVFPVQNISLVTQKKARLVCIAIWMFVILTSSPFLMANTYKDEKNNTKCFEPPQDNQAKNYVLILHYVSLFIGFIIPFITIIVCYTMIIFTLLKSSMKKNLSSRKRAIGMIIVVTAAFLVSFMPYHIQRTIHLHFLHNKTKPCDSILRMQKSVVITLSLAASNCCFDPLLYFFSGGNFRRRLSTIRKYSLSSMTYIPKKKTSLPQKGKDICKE
Procedure: The LTD4 antagonist activity of the compounds of the invention is assessed in the in vitro isolated guinea pig trachea assay. This assay is carried out as follows: Male Hartley guinea pigs (350-400 g) are euthanized by a blow to the head, the neck is opened and the trachea removed. The trachea is maintained in aerated physiological salt solution, cleared of connective tissue and fat and cut into rings approximately 2 mm in width (usually containing two cartilaginous segments per ring). Two pieces of silk suture are then passed through the lumen of the tracheal ring and are tied around the cartilage, one on each side of the trachealis muscle. […] The tracheal rings are maintained at 2 g resting tension and equilibrated for 45 minutes (with frequent washing and readjustment of resting tension). […] All responses to LTD4 in an individual tissue are measured as a percentage of the reference contraction of that tissue to carbachol. LTD4 antagonist activity is determined by comparison of the concentration response curves of LTD4 in the presence and absence of antagonist. Assessment of the relative rightward shift of the antagonist treated curve relative to the solvent (control) treated tissue is calculated as a concentration ratio (Eq. A) and used in subsequent calculations to derive an antagonist pKB value (Eqs B and C). […]

carrageenan paw edema = assay: Rat carrageenan paw edema assay; type: in vivo, rat (male Sprague-Dawley)
Procedure: The compounds of the invention are further tested in the rat carrageenan paw edema assay to determine their ability to inhibit the acute inflammatory response.
as §1
140-180 gm Male Sprague-Dawley rats, in groups of 6 animals are injected subcutaneously in the right paw with 0.1 ml of 1% carrageenan at zero time. Mercury plethysmographic readings (ml) of the paw are made at zero time and 3 hours later. Test compounds are suspended or dissolved in 0.5% methylcellulose and given perorally 1 hour prior to carrageenan administration.
The increase in paw volume (edema in ml) produced by the carrageenan is measured. Paw edema is calculated (3 hour volume minus zero time volume), and percent inhibition of edema is determined. Unpaired Student's t-test is used to determine statistical significance.

[2] = Rat acute gastroirritation assay; parameters: species or system rat (male Sprague Dawley); details: in vivo, po, gastric intubation, read-out: UD50
Procedure: The compounds of the invention are tested in the rat acute gastroirritation assay to examine their potential for causing gastric irritation when administered at doses exceeding the effective dose.
as §1
Male Sprague Dawley rats (190-220 g) are fasted for 18 hours prior to drug administration. Rats are divided into groups of 8 and coded (i.e., observer of gastric lesions is not aware of drug treatment). Drugs are dissolved or suspended in 0.5% Tween 80 and administered by gastric intubation in a volume of 1 ml/100 g body weight, control rats receiving only Tween 80. Four hours after drug administration, rats are evaluated by recording the incidence and severity of gastroirritation using the following scoring system: 0) No irritation or lesions; 1) irritation (redness); 2) ≤5 lesions (ulcers); and 3) >5 lesions. Dunnett's test (α=0.05) is used to calculate the mean ±SE of each test group and the statistical significance.

Row | Compound | % Inhibition at a concentration of 10 μM, Pancreatic Lipase (Pancreatic Lipase PLA2) [%] | % Inhibition 6-keto-PGF (6-keto-PGF1α /TxB2; 50 mg/kg p.o., negative values denote potentiation) [%] | % Inhibition 6-keto-PGF (6-keto-PGF1α /TxB2; 100 mg/kg p.o.) [%] | Kb [1] [nM] | % Inhibition (carrageenan paw edema; 25 mg/kg peroral) [%] | % Inhibition (carrageenan paw edema; 50 mg/kg peroral) [%] | % Inhibition (carrageenan paw edema; 100 mg/kg peroral) [%] | ED50 (6-keto-PGF1α /TxB2; Mus musculus, po, read-out: ED50 6-keto-PGF) [mg/kg] | % Inhibition (carrageenan paw edema; 0.5 mg/kg peroral) [%] | % Inhibition (carrageenan paw edema; 2.0 mg/kg peroral) [%] | % Inhibition (carrageenan paw edema; 8.0 mg/kg peroral) [%] | ED50 (carrageenan paw edema; Rattus norvegicus, po, 3 h) [mg/kg] | TD50 at 4 h [2] [mg/kg]
1 | O=C(O)Cc1cc(OCc2ccc3ccccc3n2)ccc1Nc1c(Cl)cccc1Cl [Example 2, 2-[(2,6-Dichlorophenyl)amino]-5-(2-quinolylmethoxy)benzene acetic acid] | 90.1 | -25 | 65 | 550 | 63 | 58 | 66 |  |  |  |  |  | 
2 | O=C(O)Cc1ccccc1Nc1c(Cl)cccc1Cl [diclofenac, reference compound] |  |  |  |  |  |  |  | 0.77 | 15 | 50 | 75 | 2.3 | 20
